Tests used:
[1] = system: vasoconstriction of rat thoracic aorta induced by U-46619; assay: Vasoconstriction inhibitory action (U-46619-induced constriction of thoracic aorta spiral specimens); parameters: species or system long Evans rats; settings: 10 min, pH 7.4, minimum concentration at which inhibition rate was 50% or more, 10 ng/ml U-46619, drug applied 10 minutes, 37° C., read-out: Vasoconstriction Inhibitory Action MIC
Description: Male and female long Evans rats having body weights of 150-200 g were used in this example. After sacrificing the animals by decapitation, the thoracic aorta was removed, and the outer membrane was peeled off to obtain I2 spiral specimens roughly 2 cm in length. Blood vessel specimens were warmed to 37° C. and preserved in a Magnus tube containing 10 ml of a nutrient solution aerated with 95% oxygen+5% carbon dioxide gas. The nutrient solution contained 118.3 mmol of NaCl, 4.7 mmol of KCl, […] of CaCl, 1.2 mmol of MgSO4, 1.2 mmol of KH2 PO4, 25 mmol of NaCHO3, 11.1 mmol of D-glucose, 0.03 mmol of EDTA along with 1 μg/ml each of atropin, phentolamine, mepiramine, cyproheptadine, propranolol and indometacin, and was adjusted to a pH of 7.4. Vasoconstriction was measured using an isometric transducer (Harward UF-1 Transducer and Sekonic SS-250F Graph recorder). An equilibration time of 3 hours was provided after the blood vessels were installed on the Magnus device, and fresh nutrient solution was replaced every 30 minutes during that time. […] of U-46619, having TXA2 action (to reach roughly 75% of maximum constriction), was applied for 30 minutes to constrict the vessels. The maximum stable constriction during this time was taken to be the control constriction (C1). Next, the blood vessels were washed several times with nutrient solution to remove the drug. After allowing a recovery period of 30 minutes, the test drugs were applied at various concentrations for 10 minutes followed by again constricting the vessels by applying 10 ng/ml of U-46619 for 30 minutes. The maximum stable constriction during this time was taken to be the constriction of the test drugs (C2). The inhibition rates of vasoconstriction induced by the drugs and U-46619 were determined according to the following formula, and the minimum concentration at which the inhibition rate was 50% or more was determined as the minimum inhibitory concentration (MIC).
((C1-C2)/C1)×100=Inhibition rate (%)

[2] = system: platelet aggregation induced by U-46619 in human platelet-rich plasma (PRP); assay: Platelet aggregation inhibitory action (U-46619-induced, human platelet-rich plasma); type: cell-based; settings: compounds added 1 minute before U-46619, turbidity
Description: Human whole blood drawn from the median cubital vein was centrifuged for 10 minutes at 800 rpm, and the upper portion was collected as platelet-rich plasma (PRP). […] The size of the aggregates were measured with a platelet aggregate measuring instrument (Hematracer 1, Nikko Bioscience) as the change in turbidity. The compounds were added 1 minute before addition of U-46619, and the concentration which inhibits aggregation by 50% was calculated as the IC50 value.

Thromboxane A2 Receptor = target: T1, Thromboxane A2 Receptor (Oryctolagus cuniculus, UniProt Q6WQI8); assay: Receptor binding experiment: Thromboxane A2 Receptor Binding Test ([3H]SQ29548, washed platelets); parameters: species or system New Zealand White rabbits; settings: rabbit washed platelets; [3H]SQ29548 3 nM; 60 minutes at 25° C.; read-out: Binding Inhibitory Action IC50 (converted)
T1 sequence (Q6WQI8 1-233): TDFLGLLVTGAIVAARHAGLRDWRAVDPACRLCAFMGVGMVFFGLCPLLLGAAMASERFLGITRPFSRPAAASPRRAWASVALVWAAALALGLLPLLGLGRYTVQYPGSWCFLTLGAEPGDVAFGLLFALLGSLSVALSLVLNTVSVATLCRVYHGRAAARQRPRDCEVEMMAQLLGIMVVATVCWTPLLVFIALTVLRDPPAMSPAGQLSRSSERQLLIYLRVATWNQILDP
Description: Whole blood from New Zealand White rabbits was collected into a container containing ACD solution (1.175 g of sodium citrate, 0.685 g of citric acid, and 1 g of dextrose dissolved in 50 ml of distilled water) followed by centrifuging at room temperature for 10 minutes at 180 ×g to obtain platelet-rich plasma. Moreover, this platelet-rich plasma was further centrifuged at room temperature and 2800 ×g to result in sedimentation of the platelets. The platelets were resuspended in 50 mM Tris hydrochloric acid buffer solution (pH 7.2, containing […]) and again centrifuged at 4° C. for 15 minutes at 2800 ×g. This procedure was repeated twice to prepare the washed platelets, and adjusted to a final concentration of 10 mg/ml (wet weight). Tritium-labelled SQ29548 ([3H]SQ29548) was used for the TXA2 ligand. In an antagonism experiment, 20 μl of [3H]SQ29548 at a final concentration of 3 nM were added to 500 μl of a 10 mg/ml platelet suspension, together with adding 2.6 μl of the test drug dissolved in a suitable buffer. After incubating for 60 minutes at 25° C., the mixture was filtered over a glass filter using the Celherbster method, the filter was washed with 50 mM Tris hydrochloric acid buffer solution (3 ×4 ml), and radioactivity was measured with a scintillation counter to determine the amount of [3H]SQ29548 bound to the platelets. In addition, in a saturation test, 20 μl of [3H]SQ29548 were added to a final concentration of 0.1-50 nM followed by the addition of 2.6 μl of BM13505 at a final concentration of 1 μM in order to examine non-specific binding and carry out a binding experiment. The concentration of the test drug which inhibited binding of [3H]SQ29548 by 50% was determined as the IC50 value.

Structure (SMILES)	minimal effective concentration [1]	IC50 [2]	IC50 (Thromboxane A2 Receptor)
O=C(O)COc1cccc2c1O[C@H]1C[C@@H](O)[C@H](NS(=O)(=O)c3ccc(Cl)c(Cl)c3)[C@@H]21 (racemic) [(72), (1RS, 2RS, 3aSR, 8bRS)-1-(3,4-dichlorobenzenesulfonamido)-2-hydroxy-2,3,3a,8b-tetrahydro-1H-cyclopenta[b]benzofuran-5-yloxyacetic acid]	0.03 µg/mL	120 nM	25.3 nM
O=C(O)COc1cccc2c1O[C@H]1C[C@@H](O)[C@H](NS(=O)(=O)c3ccc(Cl)cc3)[C@@H]21 (racemic) [(55), (1RS, 2RS, 3aSR, 8bRS)-1-(p-chlorobenzenesulfonamido)-2-hydroxy-2,3,3a,8b-tetrahydro-1H-cyclopenta[b]benzofuran-5-yloxy acetic acid]	0.1 µg/mL	17 nM	3.18 nM
COc1ccc(S(=O)(=O)N[C@@H]2[C@H]3c4cccc(OCC(=O)O)c4O[C@H]3C[C@H]2O)cc1 (racemic) [(51), (1RS, 2RS, 3aSR, 8bRS)-1-(p-methoxybenzenesulfonamido)-2-hydroxy-2,3,3a,8b-tetrahydro-1H-cyclopenta[b]benzofuran-5-yloxyacetic acid]	0.1 µg/mL	68 nM	27.6 nM
O=C(O)COc1cccc2c1O[C@H]1C[C@@H](O)[C@H](NS(=O)(=O)c3ccc(Br)cc3)[C@@H]21 (racemic) [(61), (1RS, 2RS, 3aSR, 8bRS)-1-(p-bromobenzenesulfonamido)-2-hydroxy-2,3,3a,8b-tetrahydro-1H-cyclopenta[b]benzofuran-5-yloxyacetic acid]	0.03 µg/mL	44 nM	2.06 nM
O=C(O)COc1cccc2c1O[C@H]1C[C@@H](O)[C@H](NS(=O)(=O)c3ccc(F)cc3F)[C@@H]21 (racemic) [(70), (1RS, 2RS, 3aSR, 8bRS)-1-(2,4-difluorobenzenesulfonamido)-2-hydroxy-2,3,3a,8b-tetrahydro-1H-cyclopenta[b]benzofuran-5-yloxyacetic acid]	0.03 µg/mL	29 nM	49.8 nM
CCOC(=O)COc1cccc2c1O[C@H]1C[C@@H](O)[C@H](NS(=O)(=O)c3ccccc3)[C@@H]21 (racemic) [(102), (1RS, 2RS, 3aSR, 8bRS)-1-benzenesulfonamido-2-hydroxy2,3,3a,8b-tetrahydro-1H-cyclopenta[b]benzofuran-5-yloxyacetic acid ethyl ester]	0.03 µg/mL	220 nM	415 nM
O=C(O)c1cccc2c1O[C@H]1C[C@@H](O)[C@H](NS(=O)(=O)c3ccccc3)[C@@H]21 (racemic) [(39), (1RS, 2RS, 3aSR, 8bRS)-1-benzenesulfonamido-2-hydroxy-2,3,3a,8b-tetrahydro-1H-cyclopenta[b]benzofuran-5-carboxylic acid]	0.25 µg/mL	–	–
O=C(O)CCc1cccc2c1O[C@H]1C[C@@H](O)[C@H](NS(=O)(=O)c3ccccc3)[C@@H]21 (racemic) [(43), (1RS, 2RS, 3aSR, 8bRS)-1-benzenesulfonamido-2-hydroxy-2,3,3a,8b-tetrahydro-1H-cyclopenta[b]benzofuran-5-propionic acid]	0.3 µg/mL	510 nM	322 nM
O=C(O)COc1cccc2c1O[C@H]1CC[C@H](OS(=O)(=O)c3ccccc3)[C@@H]21 (racemic) [(121), (1SR, 3aSR, 8bSR)-1-(phenylsulfonyloxy)-2,3,3a,8b-tetrahydro-1H-cyclopenta[b]benzofuran-5-yloxyacetic acid]	0.003 µg/mL	130 nM	1.28 nM
CO[C@@H]1C[C@@H]2Oc3c(OCC(=O)O)cccc3[C@@H]2[C@H]1NS(=O)(=O)c1ccccc1 (racemic) [(92), (1RS, 2RS, 3aSR, 8bRS)-1-benzenesulfonamido-2-methoxy-2,3,3a,8b-tetrahydro-1H-cyclopenta[b]benzofuran-5-yloxyacetic acid]	0.1 µg/mL	100 nM	57.2 nM
O=C(O)COc1cccc2c1O[C@H]1C[C@@H](O)[C@H](NS(=O)(=O)c3cccc(Cl)c3)[C@@H]21 (racemic) [(57), (1RS, 2RS, 3aSR, 8bRS)-1-(m-chlorobenzenesulfonamido)-2-hydroxy-2,3,3a,8b-tetrahydro-1H-cyclopenta[b]benzofuran-5-yloxyacetic acid]	0.01 µg/mL	41 nM	22.7 nM
O=C(O)COc1cccc2c1O[C@H]1C[C@@H](O)[C@H](NS(=O)(=O)c3ccccc3Cl)[C@@H]21 (relative stereo) [(59), (1RS, 2RS, 3aSR, 8bRS)-1-(o-chlorobenzenesulfonamido)-2-hydroxy-2,3,3a,8b-tetrahydro-1-cyclopenta[b]benzofuran-5-yloxyacetic acid]	0.1 µg/mL	69 nM	22.7 nM
O=C(O)COc1cccc2c1O[C@H]1CC[C@H](NS(=O)(=O)c3ccccc3)[C@@H]21 (racemic) [(90), (1SR, 3aSR, 8bRS)-1-benzenesulfonamido-2,3,3a,8b-tetrahydro-1H-cyclopenta[b]benzofuran-5-yloxyacetic acid]	0.003 µg/mL	99 nM	8.47 nM
O=C(O)COc1cccc2c1O[C@H]1C[C@@H](O)[C@H](NS(=O)(=O)c3ccc([N+](=O)[O-])cc3)[C@@H]21 (racemic) [(68), (1RS, 2RS, 3aSR, 8bRS)-1-(p-nitrobenzenesulfonamido)-2-hydroxy-2,3,3a,8b-tetrahydro-1H-cyclopenta[b]benzofuran-5-yloxyacetic acid]	0.1 µg/mL	140 nM	910 nM
O=C(O)COc1ccc(CCNS(=O)(=O)c2ccccc2)cc1 [Control, 4-(2-(benzenesulfonamido)ethyl) phenoxyacetic acid, reference compound]	0.3 µg/mL	5000 nM	4170 nM
O=C(O)/C=C/c1cccc2c1O[C@H]1C[C@@H](O)[C@H](NS(=O)(=O)c3ccccc3)[C@@H]21 (relative stereo) [(88), (1RS, 2RS, 3aSR, 8bRS)-1-benzenesulfonamido-2-hydroxy-2,3,3a,8b-tetrahydro-1H-cyclopenta[b]benzofuran-5-(E)-acrylic acid]	0.3 µg/mL	450 nM	648 nM
O=C(O)COc1cccc2c1O[C@H]1C[C@@H](O)[C@H](NS(=O)(=O)c3ccc(I)cc3)[C@@H]21 (racemic) [(63), (1RS, 2RS, 3aSR, 8bRS)-1-(p-iodobenzenesulfonamido)-2-hydroxy-2,3,3a,8b-tetrahydro-1H-cyclopenta[b]benzofuran-5-yloxyacetic acid]	0.01 µg/mL	58 nM	22.6 nM

— patent US5496849A, “Sulfonic acid derivative and its pharmaceutical application” (Toray Industries, Inc., priority 1992, dated 1996)
